Results as given in US11427553B2, “Dihydrooxadiazinones” (Bayer Aktiengesellschaft, priority 2017, dated 2022).

How the values were obtained:
human full length PDE3B = human full length PDE3B (Homo sapiens (Human), UniProt Q13370); test: Assay 5 PDE3B enzyme inhibition (3H-cAMP SPA); format: biochemical; details: Sf9 cell extract
Procedure, shortened: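 Compounds in DMSO are mixed with diluted PDE3B extract from Sf9 cells, and reactions start on adding tritiated cAMP. After 60 min at room temperature, yttrium scintillation proximity beads terminate hydrolysis and signal is counted; IC50 values come from sigmoidal dose-response curves.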

SK-MEL-3 cells = test: Assay 1 cell proliferation measurement (CTG, 72 h), SK-MEL-3; format: cell-based, human; details: Homo sapiens, SK-MEL3; Assay 1, 72 h, Cell Titer Glo; read-out: SK-MEL-3 IC50 [nM] (melanoma)
Procedure, shortened: (§1)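 Growth inhibition relative to a 0 h baseline plate and 0.3% DMSO control, with IC50 fitted by 4-parameter curve. Compound exposure lasted 72 h at 37 °C across a 2.5-fold, 10-step series starting generally at 100 nM final.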

HeLa cells = test: Assay 1 cell proliferation measurement (CTG, 72 h), HeLa; format: cell-based, human; details: Homo sapiens, HeLa; Assay 1, 72 h, Cell Titer Glo; read-out: HeLa IC50 [nM] (Cervical cancer)
Procedure, shortened: as §1

human full length PDE3A = human full length PDE3A (Homo sapiens (Human), UniProt Q14432); test: Assay 4 PDE3A enzyme inhibition (3H-cAMP SPA); format: biochemical; details: Sf9 cell extract
Sequence of human full length PDE3A (Q14432 whole entry): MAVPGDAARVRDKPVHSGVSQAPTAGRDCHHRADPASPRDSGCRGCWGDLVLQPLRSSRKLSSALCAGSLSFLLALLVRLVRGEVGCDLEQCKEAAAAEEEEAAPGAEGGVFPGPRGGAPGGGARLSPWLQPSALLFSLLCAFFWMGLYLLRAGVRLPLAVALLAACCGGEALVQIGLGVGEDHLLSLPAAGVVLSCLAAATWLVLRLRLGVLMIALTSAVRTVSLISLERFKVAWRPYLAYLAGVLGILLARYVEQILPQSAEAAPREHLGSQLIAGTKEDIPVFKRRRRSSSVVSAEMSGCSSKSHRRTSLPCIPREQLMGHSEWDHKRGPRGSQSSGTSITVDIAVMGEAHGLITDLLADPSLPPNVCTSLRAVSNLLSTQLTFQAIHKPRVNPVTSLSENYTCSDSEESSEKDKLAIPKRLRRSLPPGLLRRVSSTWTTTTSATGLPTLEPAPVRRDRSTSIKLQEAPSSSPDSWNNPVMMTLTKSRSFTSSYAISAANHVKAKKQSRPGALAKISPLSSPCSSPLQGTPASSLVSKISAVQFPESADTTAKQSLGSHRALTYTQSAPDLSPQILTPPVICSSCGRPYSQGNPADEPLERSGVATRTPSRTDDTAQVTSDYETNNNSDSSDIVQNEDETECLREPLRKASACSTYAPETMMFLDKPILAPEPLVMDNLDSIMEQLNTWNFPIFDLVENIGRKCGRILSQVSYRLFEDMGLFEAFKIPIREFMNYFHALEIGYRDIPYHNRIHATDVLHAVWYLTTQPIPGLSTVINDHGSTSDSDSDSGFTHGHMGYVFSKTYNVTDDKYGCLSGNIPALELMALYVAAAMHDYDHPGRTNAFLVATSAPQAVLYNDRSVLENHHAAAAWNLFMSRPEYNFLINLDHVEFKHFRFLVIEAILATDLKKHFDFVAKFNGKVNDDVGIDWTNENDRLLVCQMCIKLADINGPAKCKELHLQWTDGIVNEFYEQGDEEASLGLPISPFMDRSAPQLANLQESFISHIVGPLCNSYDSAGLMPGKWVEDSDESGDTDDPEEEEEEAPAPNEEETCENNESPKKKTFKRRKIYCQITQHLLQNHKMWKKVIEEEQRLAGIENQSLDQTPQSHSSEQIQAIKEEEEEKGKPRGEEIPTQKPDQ
Procedure, shortened: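 In this SPA format, the 60-min room-temperature reaction used 0.025 μCi [8-3H]cAMP and diluted full-length PDE3A from Sf9 cells. Percentage activity was plotted against log compound concentration to derive IC50.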

Sequence of human full length PDE3B (Q13370 whole entry): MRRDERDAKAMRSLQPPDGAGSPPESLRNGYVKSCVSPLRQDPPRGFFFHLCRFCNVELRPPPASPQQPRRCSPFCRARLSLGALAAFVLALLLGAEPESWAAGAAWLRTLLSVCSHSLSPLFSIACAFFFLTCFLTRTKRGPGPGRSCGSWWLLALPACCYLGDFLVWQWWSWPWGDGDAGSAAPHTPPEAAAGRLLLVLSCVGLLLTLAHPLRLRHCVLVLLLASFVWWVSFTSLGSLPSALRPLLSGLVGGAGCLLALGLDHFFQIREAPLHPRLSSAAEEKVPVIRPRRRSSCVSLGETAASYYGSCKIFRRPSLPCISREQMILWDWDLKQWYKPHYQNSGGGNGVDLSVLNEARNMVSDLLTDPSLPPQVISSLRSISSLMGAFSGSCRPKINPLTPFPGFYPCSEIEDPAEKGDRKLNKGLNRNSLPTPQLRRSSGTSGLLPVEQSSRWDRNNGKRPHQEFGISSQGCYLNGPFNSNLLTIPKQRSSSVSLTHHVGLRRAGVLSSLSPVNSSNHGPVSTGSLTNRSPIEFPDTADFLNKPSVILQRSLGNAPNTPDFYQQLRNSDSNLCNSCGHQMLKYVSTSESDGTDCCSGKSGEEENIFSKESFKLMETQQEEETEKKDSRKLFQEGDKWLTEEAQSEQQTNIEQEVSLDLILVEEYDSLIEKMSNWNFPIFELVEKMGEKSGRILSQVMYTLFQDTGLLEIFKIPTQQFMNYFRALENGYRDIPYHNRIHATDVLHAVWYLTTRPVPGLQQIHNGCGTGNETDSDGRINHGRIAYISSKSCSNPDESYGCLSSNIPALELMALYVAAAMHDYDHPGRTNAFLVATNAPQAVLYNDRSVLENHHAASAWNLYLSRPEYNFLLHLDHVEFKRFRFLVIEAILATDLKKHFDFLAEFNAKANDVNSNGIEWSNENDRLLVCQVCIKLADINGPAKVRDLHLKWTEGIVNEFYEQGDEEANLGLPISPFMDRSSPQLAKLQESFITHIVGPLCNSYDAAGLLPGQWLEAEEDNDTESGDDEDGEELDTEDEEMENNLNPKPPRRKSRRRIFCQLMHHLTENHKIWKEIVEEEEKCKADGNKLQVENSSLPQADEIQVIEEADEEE

Compound	IC50 (human full length PDE3B) [µM]	IC50 (SK-MEL-3 cells) [nM]	IC50 (HeLa cells) [nM]	IC50 (human full length PDE3A) [µM]
C[C@@H]1OC(=O)NN=C1c1ccc(-c2cccc(F)c2)c(C(F)(F)F)c1 [Example 181, (6S)-5-[3′-Fluoro-2-(trifluoromethyl)[1,1′-biphenyl]-4-yl]-6-methyl-3,6-dihydro-2H-1,3,4-oxadiazin-2-one]	0.077	6	3	0.074
Cn1cnc2ccc(-c3ccc(C4=NNC(=O)OC4)cc3C(F)(F)F)cc21 [Example 73, 5-[4-(1-Methyl-1H-benzimidazol-6-yl)-3-(trifluoromethyl)phenyl]-3,6-dihydro-2H-1,3,4-oxadiazin-2-one]	0.041	46	25	0.018
Cc1cc(C2=NNC(=O)OC2)ccc1Cl [Intermediate 76, 5-(4-Chloro-3-methylphenyl)-3,6-dihydro-2H-1,3,4-oxadiazin-2-one]	0.13	75	40	0.375
COC(C)(C)CNc1ccc(C2=NNC(=O)OC2)cc1C(F)(F)F [Example 258, 5-{4-[(2-Methoxy-2-methylpropyl)amino]-3-(trifluoromethyl)phenyl}-3,6-dihydro-2H-1,3,4-oxadiazin-2-one]	0.13	6	3	0.041
O=C1NN=C(c2ccc(-c3ccc(C(F)(F)F)nc3)c(C(F)(F)F)c2)CO1 [Example 36, 5-{3-(Trifluoromethyl)-4-[6-(trifluoromethyl)pyridin-3-yl]phenyl}-3,6-dihydro-2H-1,3,4-oxadiazin-2-one]	0.32	39	23	0.28
Cc1cc(-c2ccc(C3=NNC(=O)OC3)cc2C(F)(F)F)sc1C#N [Example 152, 3-Methyl-5-[4-(2-oxo-3,6-dihydro-2H-1,3,4-oxadiazin-5-yl)-2-(trifluoromethyl)phenyl]thiophene-2-carbonitrile]	0.076	56	21	0.063
Nc1ccc(-c2ccc(C3=NNC(=O)OC3)cc2C(F)(F)F)cc1 [Example 34, 5-[4′-Amino-2-(trifluoromethyl)biphenyl-4-yl]-3,6-dihydro-2H-1,3,4-oxadiazin-2-one]	0.1	765	3	0.1
C[C@@H]1OC(=O)NN=C1c1ccc(N2CCOCC2)c(C(F)(F)F)c1 [Example 120, (6S)-6-Methyl-5-[4-(morpholin-4-yl)-3-(trifluoromethyl)phenyl]-3,6-dihydro-2H-1,3,4-oxadiazin-2-one]	0.004	1	0.3	0.006
O=C1NN=C(c2cc(F)c(-c3cnn(C(F)F)c3)c(C(F)(F)F)c2)CO1 [Example 193, 5-{4-[1-(Difluoromethyl)-1H-pyrazol-4-yl]-3-fluoro-5-(trifluoromethyl)phenyl}-3,6-dihydro-2H-1,3,4-oxadiazin-2-one]	0.215	9	5	0.195
C[C@@H]1OC(=O)NN=C1c1ccc(F)c(C(F)(F)F)c1 [Intermediate 75, (6S)-5-(-[(4-Fluoro-3-(trifluoromethyl)phenyl)-)]-6-methyl-3,6-dihydro-2H-1,3,4-oxadiazin-2-one]	0.71	45	22	0.24

More lines, now with the values ahead:

IC50 (human full length PDE3B) [µM]	IC50 (SK-MEL-3 cells) [nM]	IC50 (HeLa cells) [nM]	IC50 (human full length PDE3A) [µM]	Compound
0.11	9	5	0.1	O=C1NN=C(c2ccc(N3CCC(F)CC3)c(F)c2)CO1 [Example 6, 5-[3-Fluoro-4-(4-fluoropiperidin-1-yl)phenyl]-3,6-dihydro-2H-1,3,4-oxadiazin-2-one]
0.013	7	5	0.036	CC1OC(=O)NN=C1c1ccc(N2CCOCC2)c(F)c1 (racemic) [Example 119, (rac)-5-(3-Fluoro-4-morpholinophenyl)-6-methyl-3,6-dihydro-2H-1,3,4-oxadiazin-2-one]
0.083	30	15	0.038	O=C1NN=C(c2ccc(-c3ccc4nccn4c3)c(C(F)(F)F)c2)CO1 [Example 143, 5-[4-(Imidazo[1,2-a]pyridin-6-yl)-3-(trifluoromethyl)phenyl]-3,6-dihydro-2H-1,3,4-oxadiazin-2-one]
0.095	9	5	0.077	O=C1NN=C(c2ccc(-c3cccc(F)c3)c(F)c2)CO1 [Example 117, 5-(2,3′-Difluoro[1,1′-biphenyl]-4-yl)-3,6-dihydro-2H-1,3,4-oxadiazin-2-one]
0.079	4	1	0.099	O=C1NN=C(c2ccc(-c3ccc(F)cc3)c(F)c2)CO1 [Example 30, 5-(2,4′-Difluorobiphenyl-4-yl)-3,6-dihydro-2H-1,3,4-oxadiazin-2-one]
0.015	5	3	0.017	C[C@@H]1OC(=O)NN=C1c1cc(F)c(N2CCOCC2)c(F)c1 [Example 25-2, (6S)-5-(3,5-Difluoro-4-morpholinophenyl)-6-methyl-3,6-dihydro-2H-1,3,4-oxadiazin-2-one]
> 0.91	> 100	> 84	> 0.28	CN(C)CCNc1ccc(C2=NNC(=O)OC2)cc1C(F)(F)F [Example 323, 5-[4-{[2-(dimethylamino)ethyl]amino}-3-(trifluoromethyl)phenyl]-3,6-dihydro-2H-1,3,4-oxadiazin-2-one]
0.51	20	13	0.27	Nc1cc(-c2ccc(C3=NNC(=O)OC3)cc2OC(F)(F)F)ccc1F [Example 60, 5-[3′-Amino-4′-fluoro-2-(trifluoromethoxy)biphenyl-4-yl]-3,6-dihydro-2H-1,3,4-oxadiazin-2-one]
0.18	5	2	0.074	O=C1NN=C(c2ccc(N3CCC3)c(C(F)(F)F)c2)CO1 [Example 72, 5-[4-(Azetidin-1-yl)-3-(trifluoromethyl)phenyl]-3,6-dihydro-2H-1,3,4-oxadiazin-2-one]
0.22	74	18	0.45	CC1CN(c2c(F)cc(C3=NNC(=O)OC3C)cc2F)CCO1 (centres unmarked) [Example 18, 5-{3,5-Difluoro-4-[2-methylmorpholin-4-yl]phenyl}-6-methyl-3,6-dihydro-2H-1,3,4-oxadiazin-2-one]
0.08	10	6	0.065	O=C1NN=C(c2ccc(-c3cccnc3)c(C(F)(F)F)c2)CO1 [Example 33, 5-[4-(Pyridin-3-yl)-3-(trifluoromethyl)phenyl]-3,6-dihydro-2H-1,3,4-oxadiazin-2-one]
0.11	6	2	0.075	Cc1cc(C2=NNC(=O)OC2)ccc1-c1ccccc1 [Example 27, 5-(2-Methylbiphenyl-4-yl)-3,6-dihydro-2H-1,3,4-oxadiazin-2-one]
0.031	21	10	0.031	Nc1cc(-c2ccc(C3=NNC(=O)OC3)cc2C(F)(F)F)ccc1Cl [Example 41, 5-[3′-Amino-4′-chloro-2-(trifluoromethyl)biphenyl-4-yl]-3,6-dihydro-2H-1,3,4-oxadiazin-2-one]
